In the test the target is COX-1 (Homo sapiens, UniProt P23219). Nature of the test: biochemical.

In general, IC50 refers to the concentration that gives 50% inhibition. High values mean weaker potency in that assay, low ones greater potency in that assay.

Values joined by “and” are separate entries in the source; they are usually repeats but may differ in a detail not shown here. Equal entries are not always repeated. Where only a bound is given, the exact number is not on record here.

COX-1, sequence (P23219 24-599): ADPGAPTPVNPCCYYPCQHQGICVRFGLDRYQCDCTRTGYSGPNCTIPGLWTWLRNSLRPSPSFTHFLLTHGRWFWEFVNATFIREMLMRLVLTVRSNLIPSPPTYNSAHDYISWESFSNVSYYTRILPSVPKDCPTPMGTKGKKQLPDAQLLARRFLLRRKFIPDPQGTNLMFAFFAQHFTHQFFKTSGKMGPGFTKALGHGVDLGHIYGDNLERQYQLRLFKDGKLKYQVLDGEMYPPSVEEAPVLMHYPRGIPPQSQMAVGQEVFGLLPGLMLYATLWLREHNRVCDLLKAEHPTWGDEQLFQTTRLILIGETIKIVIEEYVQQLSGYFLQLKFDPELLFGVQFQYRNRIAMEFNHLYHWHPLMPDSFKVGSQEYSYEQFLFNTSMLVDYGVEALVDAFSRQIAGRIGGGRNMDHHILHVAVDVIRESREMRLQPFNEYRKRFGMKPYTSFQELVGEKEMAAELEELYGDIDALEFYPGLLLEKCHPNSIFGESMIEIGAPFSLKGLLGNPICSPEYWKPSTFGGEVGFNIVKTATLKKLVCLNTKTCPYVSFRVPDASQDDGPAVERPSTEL

Compound `NS(=O)(=O)c1ccc(C#Cc2cc(Cl)cc3c2OC(C(F)(F)F)C(C(=O)O)=C3)cc1` (centres unmarked) [Example 39b, 8-{[4-(aminosulfonyl)phenyl]ethynyl}-6-chloro-2-(trifluoromethyl)-2H-chromene-3-carboxylic acid] displayed an IC50 of 3.93 µM.
In the case of `CCOc1cc(Br)cc2c1OC(C(F)(F)F)C(C(=O)O)=C2` (centres unmarked) [Example 26, 6-bromo-8-ethoxy-2-(trifluoromethyl)-2H-chromene-3-carboxylic acid], the IC50 is greater than 100 µM.
Consider `Cc1cc(C)c2c(c1)C=C(C(=O)O)C(C(F)(F)F)O2` (racemic) [Example 32a, 6,8-dimethyl-2-(trifluoromethyl)-2H-chromene-3-carboxylic acid], for which the IC50 is > 100 µM and 185 µM and 204 µM and 165 µM and 128 µM.
As for `O=C(O)C1=Cc2cccc(OCc3ccoc3)c2OC1C(F)(F)F` (centres unmarked) [Example 25h, 8-(3-furylmethoxy)-2-(trifluoromethyl)-2H-chromene-3-carboxylic acid], the figure is > 100 µM and 72.3 µM; as for `CCc1ccc2c(c1)C=C(C(=O)O)C(C(F)(F)F)O2` (stereo in doubt) [Example 34c, (2R)-6-ethyl-2-(trifluoromethyl)-2H-chromene-3-carboxylic acid], greater than 100 µM.
`Cc1cc(C)c(Cc2cc3c(cc2Cl)C=C(C(=O)O)C(C(F)(F)F)O3)cc1Cl` (centres unmarked) [Example 9t, 6-chloro-7-(5-chloro-2,4-dimethylbenzyl)-2-(trifluoromethyl)-2H-chromene-3-carboxylic acid]: the IC50 was 5.5 µM. That is a single-digit micromolar value.
For the compound `CCCC(=O)NCc1cc2c(cc1Cl)C=C(C(=O)O)C(C(F)(F)F)O2` (centres unmarked) [Example 16, 7-[(butyrylamino)methyl]-6-chloro-2-(trifluoromethyl)-2H-chromene-3-carboxylic acid], the IC50 is greater than 100 µM.
In the case of `CC(C)c1cc2c(cc1Cl)C(Cl)=C(C(=O)O)C(C(F)(F)F)O2` (centres unmarked) [Example 9g, 4,6-dichloro-7-isopropyl-2-(trifluoromethyl)-2H-chromene-3-carboxylic acid] it was 24.2 µM and 25.1 µM; in that of `CCC(CC)COc1cc2c(cc1Cl)C=C(C(=O)O)C(C(F)(F)F)O2` (centres unmarked) [Example 2c, 6-chloro-7-(2-ethylbutoxy)-2-(trifluoromethyl)-2H-chromene-3-carboxylic acid], 51.6 µM.
`CCCCSc1cc2c(cc1Cl)C=C(C(=O)O)C(C(F)(F)F)O2` (centres unmarked) [Example 7f, 7-(butylthio)-6-chloro-2-(trifluoromethyl)-2H-chromene-3-carboxylic acid] returned an IC50 of 70.8 µM.
As for `O=C(O)C1=Cc2cc(Cl)c(Cc3ccccc3)cc2O[C@H]1C(F)(F)F` (single isomer, unassigned) [Example 9l], the figure is 3.05 µM and 2.38 µM; as for `CCCOc1ccc(Cl)c2c1OC(C(F)(F)F)C(C(=O)O)=C2` (centres unmarked) [Example 23a, 5-chloro-8-propoxy-2-(trifluoromethyl)-2H-chromene-3-carboxylic acid], greater than 500 µM.
In the case of `O=C(O)C1=Cc2cc(Cl)c(O)c(Cl)c2OC1C(F)(F)F` (centres unmarked) [Example 1a, 6,8-dichloro-7-hydroxy-2-(trifluoromethyl)-2H-chromene-3-carboxylic acid] it was greater than 500 µM.
In turn, `COCCOc1ccc2c(c1)OC(C(F)(F)F)C(C(=O)O)=C2` (centres unmarked) [Example 5e, 7-(2-methoxyethoxy)-2-(trifluoromethyl)-2H-chromene-3-carboxylic acid] displayed an IC50 greater than 100 µM.
In the case of `COc1cc(Cl)c(Cl)c2c1OC(C(F)(F)F)C(C(=O)O)=C2` (centres unmarked) [Example 23e, 5,6-dichloro-8-methoxy-2-(trifluoromethyl)-2H-chromene-3-carboxylic acid] it was 0.471 µM and < 0.132 µM.
As for `O=C(O)C1=Cc2ccc(Cc3ccc(F)cc3)cc2OC1C(F)(F)F` (centres unmarked) [Example 9bb, 7-(4-fluorobenzyl)-2-(trifluoromethyl)-2H-chromene-3-carboxylic acid], the IC50 is 37.4 µM.
As for `CCCc1cc(OC(F)(F)F)cc2c1OC(C(F)(F)F)C(C(=O)O)=C2` (racemic) [Example 21i, 8-propyl-6-(trifluoromethoxy)-2-(trifluoromethyl)-2H-chromene-3-carboxylic acid], the figure is 20.5 µM and 13.6 µM; as for `Cc1cc(Cl)cc2c1O[C@H](C(F)(F)F)C(C(=O)O)=C2` (single isomer, unassigned) [Example 21t], 32.3 µM and 7.18 µM and 6.42 µM and 8.06 µM and 18.4 µM.
As for `CCc1cc2c(cc1Cc1ccccc1)OC(C(F)(F)F)C(C(=O)O)=C2` (centres unmarked) [Example 42b, 7-benzyl-6-ethyl-2-(trifluoromethyl)-2H-chromene-3-carboxylic acid], the figure is greater than 100 µM; as for `CCCOc1cccc2c1OC(C(F)(F)F)C(C(=O)O)=C2` (centres unmarked) [Example 25e, 8-propoxy-2-(trifluoromethyl)-2H-chromene-3-carboxylic acid], greater than 100 µM.
In the case of `O=C(O)C1=Cc2cc(Cl)c(NCc3ccccc3)cc2OC1C(F)(F)F` (centres unmarked) [Example 8k, 7-(benzylamino)-6-chloro-2-(trifluoromethyl)-2H-chromene-3-carboxylic acid] it was greater than 100 µM; in that of `CC(C)CCSc1cc2c(cc1Cl)C=C(C(=O)O)C(C(F)(F)F)O2` (centres unmarked) [Example 7b, 6-chloro-7-(isopentylthio)-2-(trifluoromethyl)-2H-chromene-3-carboxylic acid], greater than 100 µM.
As for `Cc1cc2c(c(C)c1Cl)C=C(C(=O)O)C(C(F)(F)F)O2` (centres unmarked) [Example 100, 6-chloro-5,7-dimethyl-2-(trifluoromethyl)-2H-chromene-3-carboxylic acid], the IC50 is 30.2 µM and 29.4 µM.
In the case of `COc1cc(Cl)c2c(c1)C=C(C(=O)O)[C@H](C(F)(F)F)O2` (single isomer, unassigned) [Example 17h] it was greater than 100 µM; in that of `COc1cc2c(cc1Cl)C=C(C(=O)O)C(C(F)(F)F)O2` (centres unmarked) [Example 2i, 6-chloro-7-methoxy-2-(trifluoromethyl)-2H-chromene-3-carboxylic acid], > 100 µM and 187 µM.
In the case of `CCCCCCOc1cc(Cl)c2c(c1)C=C(C(=O)O)C(C(F)(F)F)O2` (centres unmarked) [Example 17e, 8-chloro-6-(hexyloxy)-2-(trifluoromethyl)-2H-chromene-3-carboxylic acid] it was less than 0.137 µM.
As for `CCCCOc1cccc2c1OC(C(F)(F)F)C(C(=O)O)=C2` (centres unmarked) [Example 25f, 8-butoxy-2-(trifluoromethyl)-2H-chromene-3-carboxylic acid], the figure is greater than 100 µM; as for `COCCOc1cc2c(cc1Cl)C=C(C(=O)O)C(C(F)(F)F)O2` (centres unmarked) [Example 2h, 6-chloro-7-(2-methoxyethoxy)-2-(trifluoromethyl)-2H-chromene-3-carboxylic acid], greater than 100 µM.
For the compound `CCSc1cc2c(cc1Cl)C=C(C(=O)O)C(C(F)(F)F)O2` (centres unmarked) [Example 7a, 6-chloro-7-(ethylthio)-2-(trifluoromethyl)-2H-chromene-3-carboxylic acid], the IC50 is greater than 100 µM.
In the case of `CC(C)c1cc2c(cc1Cl)C=C(C(=O)O)C(C(F)(F)F)O2` (centres unmarked) [Example 9f, 6-chloro-7-isopropyl-2-(trifluoromethyl)-2H-chromene-3-carboxylic acid] it was 147 µM and > 100 µM; in that of `COc1cc(Cl)c2c(c1Cl)C=C(C(=O)O)C(C(F)(F)F)O2` (centres unmarked) [Example 18a, 5,8-dichloro-6-methoxy-2-(trifluoromethyl)-2H-chromene-3-carboxylic acid], less than 0.137 µM; in that of `O=C(O)C1=Cc2cc(Cl)c(CCC3CCCCC3)cc2OC1C(F)(F)F` (centres unmarked) [Example 9i, 6-chloro-7-(2-cyclohexylethyl)-2-(trifluoromethyl)-2H-chromene-3-carboxylic acid], 12.7 µM and 12.5 µM.
In the case of `O=C(O)COc1ccc2c(c1)OC(C(F)(F)F)C(C(=O)O)=C2` (centres unmarked) [Example 5g, 7-(carboxymethoxy)-2-(trifluoromethyl)-2H-chromene-3-carboxylic acid] it was greater than 100 µM.
In the case of `CC(C)(C)Oc1cc2c(cc1Cl)C=C(C(=O)O)C(C(F)(F)F)O2` (centres unmarked) [Example 2g, 7-tert-butoxy-6-chloro-2-(trifluoromethyl)-2H-chromene-3-carboxylic acid] it was greater than 500 µM.
For the compound `CNc1c(Cl)cc2c(c1Cl)OC(C(F)(F)F)C(C(=O)O)=C2` (centres unmarked) [Example 38b, 6,8-dichloro-7-(methylamino)-2-(trifluoromethyl)-2H-chromene-3-carboxylic acid], the IC50 is greater than 100 µM.
As for `CC(C)Cc1cc(OC(F)(F)F)cc2c1OC(C(F)(F)F)C(C(=O)O)=C2` (centres unmarked) [Example 21h, 8-isobutyl-6-(trifluoromethoxy)-2-(trifluoromethyl)-2H-chromene-3-carboxylic acid], the figure is > 100 µM and 217 µM; as for `CCc1cc(OC(F)(F)F)cc2c1O[C@H](C(F)(F)F)C(C(=O)O)=C2` (single isomer, unassigned) [Example 21k], 23.4 µM and 27 µM and 9.26 µM and 11 µM.
In the case of `O=C(O)C1=Cc2cc(OC(F)(F)F)cc(CCc3ccccc3)c2OC1C(F)(F)F` (centres unmarked) [Example 21o, 8-(2-phenylethyl)-6-(trifluoromethoxy)-2-(trifluoromethyl)-2H-chromene-3-carboxylic acid] it was 54.8 µM and 68.2 µM.
Compound `O=C(O)C1=Cc2cc(Cl)c(OCc3ccccc3)c(Cl)c2OC1C(F)(F)F` (centres unmarked) [Example 1g, 7-(benzyloxy)-6,8-dichloro-2-(trifluoromethyl)-2H-chromene-3-carboxylic acid] yielded an IC50 of 21 µM.
In the case of `Cc1cc(Cl)ccc1Cc1cc2c(cc1Cl)C=C(C(=O)O)C(C(F)(F)F)O2` (centres unmarked) [Example 9p, 6-chloro-7-(4-chloro-2-methylbenzyl)-2-(trifluoromethyl)-2H-chromene-3-carboxylic acid], the half-maximal inhibitory concentration (IC50) came to 1.51 µM.
`CCCCN(CC)c1cc2c(cc1Cl)C=C(C(=O)O)C(C(F)(F)F)O2` (centres unmarked) [Example 8h, 7-[butyl(ethyl)amino]-6-chloro-2-(trifluoromethyl)-2H-chromene-3-carboxylic acid]: the IC50 was greater than 100 µM.
In the case of `O=C(O)C1=Cc2cc(Cl)c(Cc3ccccc3)cc2O[C@@H]1C(F)(F)F` (single isomer, unassigned) [Example 9m] it was 24.1 µM.
In the case of `CC(C)(C(=O)O)c1cc2c(cc1Cl)C=C(C(=O)O)C(C(F)(F)F)O2` (centres unmarked) [Example 115, 7-(1-carboxy-1-methylethyl)-6-chloro-2-(trifluoromethyl)-2H-chromene-3-carboxylic acid] it was greater than 100 µM; in that of `COc1cccc(Cc2ccc3c(c2)OC(C(F)(F)F)C(C(=O)O)=C3)c1` (centres unmarked) [Example 9w, 7-(3-methoxybenzyl)-2-(trifluoromethyl)-2H-chromene-3-carboxylic acid], greater than 100 µM.
